Data on 19 compounds can be found in patent US12180207B2 (ARRAY BIOPHARMA INC., priority 2018, dated 2024).

Structures are written as SMILES.

In test [1] the target is T1, HEK-293 cells transfected with dox-inducible human wild type FGFR3 (Homo sapiens (Human), UniProt P22607). The experiment in a line: FGFR3 pFGFR cell assay (ELISA). The class given is cell-based. To be noted: HEK-293 dox-inducible FGFR3, 1 hour compound, 100 ng/ml FGF-acidic. The method in brief: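 Doxycycline-induced (1 μg/ml) HEK-293 cells expressing wild-type human FGFR3, treated 1 h with compound (1:3 series, top final 5 μM), then stimulated 5 min with 100 ng/ml FGF-acidic. Phospho-FGFR3 measured by ELISA (total FGFR3 capture, phosphotyrosine detection, OD 450 nm); IC50 from 4-parameter fit of POC values.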
On the technique in general: An ELISA detects its analyte on a solid surface through an enzyme-linked reagent.

Test [2] has as its target T1, HEK-293 cells transfected with dox-inducible human wild type FGFR3. The experiment in a line: FGFR3 pERK cell assay. As to conditions: HEK-293 dox-inducible FGFR3, 1 hour compound, 100 ng/ml FGF-acidic; maximum concentration 5 μM. The class given is cell-based. The method in brief: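 Doxycycline-induced cells preincubated 1 h at 37 °C with compound (1:3 dilutions, top 5 μM final), then stimulated 5 min with 100 ng/ml FGF-acidic. Lysate phospho-ERK1/2 measured by MSD sandwich assay; IC50 at 50 POC from 4-parameter fit, normalised to no-compound and control-compound wells.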

The target of test [3] is recombinant human FGFR3 (amino acids R397-T806) (Homo sapiens (Human), UniProt P22607). In words: FGFR3 enzyme activity assay (LanthaScreen TR-FRET). The class given is biochemical. As to conditions: 25 μM ATP, 10 min incubation at 22° C., average of multiple determinations if made, read-out: FGFR3 Enz FRET IC50. The method in brief:
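GST-HIS6-tagged human FGFR3 (R397-T806) was reacted with 100 nM Alexa Fluor 647-Poly-GT substrate and 25 μM ATP plus compound in HEPES/MgCl2/Triton buffer, pH 7.5, 2% DMSO, for 10 min at 22 °C.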
A general note: In TR-FRET formats the signal depends on donor and acceptor labels being close together.

For test [4], the target named is HEK-293 cells transfected with dox-inducible human wild type FGFR1 (Homo sapiens (Human), UniProt P11362). The experiment in a line: FGFR1 pERK cell assay. The class given is cell-based. As to conditions: HEK-293 dox-inducible FGFR1, 1 hour compound, 100 ng/ml FGF-acidic; maximum concentration 5 μM. The method in brief:
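In HEK-293 cells with dox-induced human wild-type FGFR1, compounds (1:3 dilutions, top 5 μM final) were applied 1 h at 37°C before 5 min stimulation with 100 ng/ml FGF-acidic. Phospho-ERK1/2 measured by MSD sandwich immunoassay; IC50 from 4-parameter fit of POC versus vehicle and control compound.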

T1 sequence (P22607 23-806): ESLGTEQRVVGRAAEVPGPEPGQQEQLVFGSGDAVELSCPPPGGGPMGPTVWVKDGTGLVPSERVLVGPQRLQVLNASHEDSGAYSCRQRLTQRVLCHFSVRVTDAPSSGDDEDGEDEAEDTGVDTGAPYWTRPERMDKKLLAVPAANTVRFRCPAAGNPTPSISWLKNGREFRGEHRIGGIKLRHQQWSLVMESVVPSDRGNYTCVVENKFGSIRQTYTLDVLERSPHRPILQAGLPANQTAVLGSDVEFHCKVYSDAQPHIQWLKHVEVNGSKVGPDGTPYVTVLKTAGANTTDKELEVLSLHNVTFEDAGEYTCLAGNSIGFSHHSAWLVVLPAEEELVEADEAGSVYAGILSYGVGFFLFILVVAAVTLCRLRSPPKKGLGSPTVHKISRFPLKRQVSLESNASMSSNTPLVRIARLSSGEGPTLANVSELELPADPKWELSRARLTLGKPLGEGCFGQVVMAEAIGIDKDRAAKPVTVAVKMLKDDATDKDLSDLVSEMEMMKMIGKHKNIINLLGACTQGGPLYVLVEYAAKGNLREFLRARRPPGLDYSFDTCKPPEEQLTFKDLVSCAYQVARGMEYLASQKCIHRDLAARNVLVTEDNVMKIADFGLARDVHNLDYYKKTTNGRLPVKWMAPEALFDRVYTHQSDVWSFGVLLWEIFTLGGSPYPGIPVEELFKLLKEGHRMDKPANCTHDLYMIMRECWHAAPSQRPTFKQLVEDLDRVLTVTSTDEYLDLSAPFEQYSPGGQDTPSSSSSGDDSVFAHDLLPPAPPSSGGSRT
Chain of HEK-293 cells transfected with dox-inducible human wild type FGFR1 (P11362 22-822): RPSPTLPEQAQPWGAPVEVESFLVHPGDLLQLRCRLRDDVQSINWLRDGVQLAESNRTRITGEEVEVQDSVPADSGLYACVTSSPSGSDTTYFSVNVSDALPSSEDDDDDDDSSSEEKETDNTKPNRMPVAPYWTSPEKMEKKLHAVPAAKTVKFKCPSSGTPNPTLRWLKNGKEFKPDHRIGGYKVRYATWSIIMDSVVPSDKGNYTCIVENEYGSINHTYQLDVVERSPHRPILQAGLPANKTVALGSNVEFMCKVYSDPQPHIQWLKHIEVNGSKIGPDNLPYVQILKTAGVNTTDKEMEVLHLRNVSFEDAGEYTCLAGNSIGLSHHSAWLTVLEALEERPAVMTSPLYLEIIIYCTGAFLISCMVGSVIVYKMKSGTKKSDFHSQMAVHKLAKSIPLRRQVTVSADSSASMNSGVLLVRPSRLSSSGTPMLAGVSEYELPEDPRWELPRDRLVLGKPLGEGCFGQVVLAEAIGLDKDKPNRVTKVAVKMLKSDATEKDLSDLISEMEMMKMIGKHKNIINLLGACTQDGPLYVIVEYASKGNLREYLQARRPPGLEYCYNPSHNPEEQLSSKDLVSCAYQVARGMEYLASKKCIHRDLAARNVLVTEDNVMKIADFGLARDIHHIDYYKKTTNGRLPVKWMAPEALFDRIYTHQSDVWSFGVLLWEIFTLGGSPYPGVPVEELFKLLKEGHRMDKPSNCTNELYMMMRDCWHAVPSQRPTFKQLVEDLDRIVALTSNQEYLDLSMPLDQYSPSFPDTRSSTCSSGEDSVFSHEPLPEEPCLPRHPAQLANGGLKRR
Chain of recombinant human FGFR3 (amino acids R397-T806) (P22607 397-806): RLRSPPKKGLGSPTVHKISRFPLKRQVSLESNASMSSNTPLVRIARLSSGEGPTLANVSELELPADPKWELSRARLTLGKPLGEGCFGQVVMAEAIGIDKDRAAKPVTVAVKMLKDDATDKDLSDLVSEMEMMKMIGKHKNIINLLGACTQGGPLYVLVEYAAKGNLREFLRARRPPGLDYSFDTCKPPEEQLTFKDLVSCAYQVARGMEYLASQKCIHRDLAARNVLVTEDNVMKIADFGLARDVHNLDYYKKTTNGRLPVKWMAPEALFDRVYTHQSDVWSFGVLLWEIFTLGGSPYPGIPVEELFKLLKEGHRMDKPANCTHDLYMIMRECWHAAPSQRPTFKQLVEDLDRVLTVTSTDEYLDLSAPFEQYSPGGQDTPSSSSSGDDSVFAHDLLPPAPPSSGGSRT

On to `C=CC(=O)N1CC(OC)(C(=O)N2CCC(n3cc(-c4cc(OC)c5c(C#N)cnn5c4)cn3)CC2)C1` [Example 41, 6-(1-(1-(1-acryloyl-3-methoxyazetidine-3-carbonyl)piperidin-4-yl)-1H-pyrazol-4-yl)-4-methoxypyrazolo[1,5-a]pyridine-3-carbonitrile], for which the IC50 (in general, the concentration at which inhibition is half-maximal) in test [1] is 10 nM; in test [2], 12 nM; in test [3], 2 nM; in test [4], 91 nM.
In the case of `C=CS(=O)(=O)Nc1cccc(C(=O)N2CCC(n3cc(-c4cc(OC)c5c(C#N)cnn5c4)cn3)CC2)c1` [Example 188, N-(3-(4-(4-(3-cyano-4-methoxypyrazolo[1,5-a]pyridin-6-yl)-1H-pyrazol-1-yl)piperidine-1-carbonyl)phenyl)eth-enesulfonamide], the IC50 amounted to 24 nM in test [1], 19 nM in test [2], 3 nM in test [3] and 134 nM in test [4].
On the same counts, the results for `C=CC(=O)N1CCC(C(=O)N2CCC(n3ncc(-c4cc(OC)c5c(C#N)cnn5c4)c3C)CC2)CC1` [Example 82, 6-(1-(1-(1-acryloylpiperidine-4-carbonyl)piperidin-4-yl)-5-methyl-1H-pyrazol-4-yl)-4-methoxypyrazolo[1,5-a]pyridine-3-carbonitrile] are 814 nM, 853 nM, 10 nM and 3360 nM.
As for `C=CC(=O)Nc1ccc(C(=O)N2CC[C@@H](n3cc(-c4cc(OC)c5c(C#N)cnn5c4)cn3)C2)cc1` [Example 55, (R)-N-(4-(3-(4-(3-cyano-4-methoxypyrazolo[1,5-a]pyridin-6-yl)-1H-pyrazol-1-yl)pyrrolidine-1-carbonyl)phenyl)acrylamide], the IC50 in test [1] amounted to 64 nM; in test [2] it was 71 nM; in test [3] it was 9 nM; in test [4] it was 381 nM.
As to `C=CC(=O)N1CC(C(=O)N2CCC(n3cc(-c4cc(OC)c5c(C#N)cnn5c4)c(C)n3)CC2)C1` [Example 94, 6-(1-(1-(1-acryloylazetidine-3-carbonyl)piperidin-4-yl)-3-methyl-1H-pyrazol-4-yl)-4-methoxypyrazolo[1,5-a]pyridine-3-carbonitrile], the IC50 is 336 nM in test [1], 450 nM in test [2], 8 nM in test [3] and 4500 nM in test [4].
On the same counts, the results for `C=CC(=O)N1CC(C(=O)N2CCC(n3cc(-c4cc(OC)c5c(C#N)cnn5c4)cn3)CC2)C1` [Example 36, 6-(1-(1-(1-acryloylazetidine-3-carbonyl)piperidin-4-yl)-1H-pyrazol-4-yl)-4-methoxypyrazolo[1,5-a]pyridine-3-carbonitrile] are 37 nM, 43 nM, 4 nM and 363 nM.
On the same counts, the results for `C=CC(=O)N1C2CC1CN(C(=O)N1CCC(n3cc(-c4cc(OC)c5c(C#N)cnn5c4)cn3)CC1)C2` [Example 1, 6-(1-(1-(6-acryloyl-3,6-diazabicyclo[3.1.1]heptane-3-carbonyl)piperidin-4-yl)-1H-pyrazol-4-yl)-4-methoxypyrazolo[1,5-a]pyridine-3-carbonitrile] are 26 nM, 86 nM, 5 nM and 525 nM.
On the same counts, the results for `C=CC(=O)N1CC(C(=O)N2CCC(n3cc(-c4cc(OC)c5c(C#N)cnn5c4)cn3)CC2)C1(C)C` (stereo not drawn) [Example 43, 6-(1-(1-(1-acryloyl-2,2-dimethylazetidine-3-carbonyl)piperidin-4-yl)-1H-pyrazol-4-yl)-4-methoxypyrazolo[1,5-a]pyridine-3-carbonitrile] are 64 nM, 90 nM, 2 nM and 428 nM.
As for `C=CC(=O)N1C2COCC1CN(C(=O)N1CCC(n3cc(-c4cc(OC)c5c(C#N)cnn5c4)cn3)CC1)C2` [Example 3, 6-(1-(1-(9-acryloyl-3-oxa-7,9-diazabicyclo[3.3.1]nonane-7-carbonyl)piperidin-4-yl)-1H-pyrazol-4-yl)-4-methoxypyrazolo[1,5-a]pyridine-3-carbonitrile], the IC50 came to 41 nM in test [1], 108 nM in test [2], 2 nM in test [3] and 870 nM in test [4].
In the case of `C=CC(=O)N1CC[C@H](C(=O)N2CC(n3cc(-c4cc(OC)c5c(C#N)cnn5c4)cn3)C2)C1` [Example 76, (S)-6-(1-(1-(1-acryloylpyrrolidine-3-carbonyl)azetidin-3-yl)-1H-pyrazol-4-yl)-4-methoxypyrazolo[1,5-a]pyridine-3-carbonitrile], the IC50 in test [1] amounted to 1900 nM; in test [3], 13 nM.
In the case of `C=CC(=O)N1CC2(CCC(C(=O)N3CCC(n4cc(-c5cc(OC)c6c(C#N)cnn6c5)cn4)CC3)CC2)C1` [Example 21, 6-(1-(1-(2-acryloyl-2-azaspiro[3.5]nonane-7-carbonyl)piperidin-4-yl)-1H-pyrazol-4-yl)-4-methoxypyrazolo[1,5-a]pyridine-3-carbonitrile], the IC50 in test [1] worked out at 40 nM; in test [3], 3 nM.
As to `C=CC(=O)N1CC[C@H](C(=O)N2CCC(n3cc(-c4cc(OC)c5c(C#N)cnn5c4)cn3)CC2)C1` [Example 28, (S)-6-(1-(1-(1-acryloylpyrrolidine-3-carbonyl)piperidin-4-yl)-1H-pyrazol-4-yl)-4-methoxypyrazolo[1,5-a]pyridine-3-carbonitrile], the IC50 came out at 285 nM in test [1] and 9 nM in test [3].
Consider `C=CS(=O)(=O)N[C@@H]1CC[C@H](C(=O)N2CCC(n3cc(-c4cc(OC)c5c(C#N)cnn5c4)cn3)CC2)C1` [Example 191, N-((1R,3S)-3-(4-(4-(3-cyano-4-methoxypyrazolo[1,5-a]pyridin-6-yl)-1H-pyrazol-1-yl)piperidine-1-carbonyl)cyclopentyl)-ethenesulfonamide], for which the IC50 in test [1] was 20 nM; in test [3], 4 nM.
Turning to `C=CC(=O)N1CC(C#N)(C(=O)N2CCC(n3cc(-c4cc(OC)c5c(C#N)cnn5c4)cn3)CC2)C1` [Example 39, 6-(1-(1-(1-acryloyl-3-cyanoazetidine-3-carbonyl)piperidin-4-yl)-1H-pyrazol-4-yl)-4-methoxypyrazolo[1,5-a]pyridine-3-carbonitrile], the IC50 in test [1] is 101 nM; in test [2], 8 nM; in test [3], 3 nM; in test [4], 52 nM.
As for `C=CC(=O)N1CC[C@@H](C(=O)N2CCC(n3cc(-c4cc(OC)c5c(C#N)cnn5c4)cn3)CC2)C1` [Example 29, (R)-6-(1-(1-(1-acryloylpyrrolidine-3-carbonyl)piperidin-4-yl)-1H-pyrazol-4-yl)-4-methoxypyrazolo[1,5-a]pyridine-3-carbonitrile], the IC50 in test [1] amounted to 359 nM; in test [3], 11 nM.
On the same counts, the results for `C=CC(=O)Nc1ccc(C(=O)N2CCC(n3cc(-c4cc(OC)c5c(C#N)cnn5c4)cn3)CC2)cc1` [Example 177, N-(4-(4-(4-(3-cyano-4-methoxypyrazolo[1,5-a]pyridin-6-yl)-1H-pyrazol-1-yl)piperidine-1-carbonyl)phenyl)acrylamide] are 57 nM and 8 nM.
On the same counts, the results for `C=CC(=O)Nc1ccc(C(=O)N2CC[C@H](n3cc(-c4cc(OC)c5c(C#N)cnn5c4)cn3)C2)c(OC)c1` [Example 69, (S)-N-(4-(3-(4-(3-cyano-4-methoxypyrazolo[1,5-a]pyridin-6-yl)-1H-pyrazol-1-yl)pyrrolidine-1-carbonyl)-3-methoxyphenyl)acrylamide] are 311 nM and 6 nM.
For `C=CC(=O)N1CC(C(=O)N2CCC(n3cc(-c4cc(OC)c5c(C#N)cnn5c4)cn3)CC2)C1C` (stereo not drawn) [Example 42, 6-(1-(1-(1-acryloyl-2-methylazetidine-3-carbonyl)piperidin-4-yl)-1H-pyrazol-4-yl)-4-methoxypyrazolo[1,5-a]pyridine-3-carbonitrile], the IC50 in test [1] came to 31 nM; in test [2], 77 nM; in test [3], 2 nM; in test [4] it was 631 nM.
With `C=CC(=O)N1CCC(C(=O)N2CCC(n3cc(-c4cc(OC)c5c(C#N)cnn5c4)cn3)CC2)C(F)(F)C1` (stereo not drawn) [Example 15, 6-(1-(1-(1-acryloyl-3,3-difluoropiperidine-4-carbonyl)piperidin-4-yl)-1H-pyrazol-4-yl)-4-methoxypyrazolo[1,5-a]pyridine-3-carbonitrile], the IC50 in test [1] came out at 10 nM; in test [3], 2 nM.
